Experimental findings from article PMC5740082, “Identification of a CARM1 Inhibitor with Potent In Vitro and In Vivo Activity in Preclinical Models of Multiple Myeloma” (Scientific Reports, 2017) are described below.

Assay in all cases: Six-day cell proliferation assay (CellTiter-Glo)
Holding throughout (type): cell-based
A general note: Cellular ATP, detected with luciferase, serves as a proxy for viable cell number.

One assay concerns JJN3. Particulars: Homo sapiens, JJN-3, 144 h; JJN3 (Plasma cell leukemia), 6 days; read-out: Average day 6 gIC50. On the procedure: (§1) Six-day cell proliferation assay
(§2) Optimal cell seeding density was determined empirically for each cell lines by examining the gro wth of a wide ran ge o f seedin g densities in a 3 84-well formatto identify conditio ns that permitted maximal and continued proliferation for 6 days. Cells were plat ed in duplicate plates 24 hours before treatment with a 20- point two-fold dilution series of compound or 0.15%
(§3) DMSO. Plates were incubated for 6 da ys at 37°C in 5% CO2. Cells were th en l ysed with CellTiter-Glo (CTG) (Pr omega) and chemiluminescent sign al was detected with an appropriat e microplate reader. In addition, an untreated plate of cells was harvested at the time of compound addition (T0) to quantif y the initial cell densit y. CTG values obtained after 6 days of treatment were expressed as a percent of the T0 value and plotted against compound concentration. […]
(§4) Supplementary Table S 3. […] A p anel […]
(§5) of cell lines was treated with EZM2302fo r 6da ys in a proliferation ass a y. Cell densit y (as assessed b y CellTiter-Gl o) at da y 0 was compared to day 6 to det ermine growth IC 50 values , calculated us i n g a f our parameter dose response equation.
(§6) Cell Type According to Cell Type Category Cell L ine Name gIC50 Average day 6 Standard Replicates
(§7) Supplier Modifier gIC50 (nM) Deviation […]
(§8) Burkitt lymphoma lymphoma NC-37 > 7331 0 2 […]

Another assay has as its system MM.1R. Conditions: 144 h; MM.1R (MM), 6 days; read-out: Average day 6 gIC50. The method, then: as §1, §2, §3, §4, §5, §6, §7, §8
A further assay relates to LP-1. Particulars: Homo sapiens, 144 h; LP-1 (MM), 6 days; read-out: Average day 6 gIC50. On the procedure:
as §1, §2, §3, §4, §5, §6, §7, §8

A further assay has as its system L363. Particulars: Homo sapiens, L-363, 144 h; L363 (Plasma cell leukemia), 6 days; read-out: Average day 6 gIC50. On the procedure: as §1, §2, §3, §4, §5, §6, §7, §8
For another assay, the system named is KMS-12BM. Conditions: Homo sapiens, 144 h; KMS-12BM (MM, Bone marrow), 6 days; read-out: Average day 6 gIC50. On the procedure:
as §1, §2, §3, §4, §5, §6, §7, §8

The next assay concerns HT. Conditions: Homo sapiens, 144 h; HT (GCB DLBCL), 6 days; read-out: Average day 6 gIC50. The method, then: as §1, §2, §3, §4, §5, §6, §7, §8
The subject of the next assay is MOLP-2. Particulars: 144 h; MOLP-2 (MM), 6 days; read-out: Average day 6 gIC50. On the procedure:
as §1, §2, §3, §4, §5, §6, §7, §8

In the next assay the test system is GDM-1. Conditions: Homo sapiens, 144 h; GDM-1 (AML), 6 days; read-out: Average day 6 gIC50. The method, then:
as §1, §2, §3, §4, §5, §6, §7, §8

For another assay, the system named is NC-37. Particulars: Homo sapiens, 144 h; NC-37 (Burkitt lymphoma), 6 days; read-out: Average day 6 gIC50. The method, then:
as §1, §2, §3, §4, §5, §6, §7, §8

A further assay deals with HuNS1. Particulars: 144 h; HuNS1 (Transformed B-lymphoblastoid), 6 days; read-out: Average day 6 gIC50. The method, then: as §1, §2, §3, §4, §5, §6, §7, §8
A further assay deals with MC/CAR. Particulars: 144 h; MC/CAR (EBV+ B-lymphoblastoid), 6 days; read-out: Average day 6 gIC50. The method, then:
as §1, §2, §3, §4, §5, §6, §7, §8

The test system of another assay is EJM. Particulars: Homo sapiens, 144 h; EJM (MM), 6 days; read-out: Average day 6 gIC50. The method, then:
as §1, §2, §3, §4, §5, §6, §7, §8

For a further assay, the system named is MOLP-8. Particulars: Homo sapiens, 144 h; MOLP-8 (MM), 6 days; read-out: Average day 6 gIC50. The method, then: as §1, §2, §3, §4, §5, §6, §7, §8
The test system of the next assay is AMO-1. Particulars: Homo sapiens, AMO1, 144 h; AMO-1 (Plasmacytoma), 6 days; read-out: Average day 6 gIC50. The method, then:
as §1, §2, §3, §4, §5, §6, §7, §8

A further assay has as its system KMS-11. Particulars: Homo sapiens, 144 h; KMS-11 (Myeloma), 6 days; read-out: Average day 6 gIC50. The method, then:
as §1, §2, §3, §4, §5, §6, §7, §8

In a further assay the test system is ARH-77. Particulars: Homo sapiens, 144 h; ARH-77 (EBV+ lymphoblastoid), 6 days; read-out: Average day 6 gIC50. The method, then: as §1, §2, §3, §4, §5, §6, §7, §8
In another assay the test system is DOHH-2. Particulars: Homo sapiens, 144 h; DOHH-2 (tFL), 6 days; read-out: Average day 6 gIC50. The method, then:
as §1, §2, §3, §4, §5, §6, §7, §8

For a further assay, the system named is KASUMI-1. Particulars: Homo sapiens, 144 h; KASUMI-1 (AML), 6 days; read-out: Average day 6 gIC50. The method, then: as §1, §2, §3, §4, §5, §6, §7, §8
For a further assay, the system named is DB. Conditions: Homo sapiens, 144 h; DB (GCB DLBCL), 6 days; read-out: Average day 6 gIC50. The method, then: as §1, §2, §3, §4, §5, §6, §7, §8
The subject of another assay is MV-4-11. Particulars: Homo sapiens, MV4-11, 144 h; MV-4-11 (AML), 6 days; read-out: Average day 6 gIC50. The method, then:
as §1, §2, §3, §4, §5, §6, §7, §8

In another assay the test system is NCI-H929. Particulars: Homo sapiens, 144 h; NCI-H929 (MM), 6 days; read-out: Average day 6 gIC50. The method, then:
as §1, §2, §3, §4, §5, §6, §7, §8

For another assay, the system named is JM1. Particulars: Homo sapiens, 144 h; JM1 (B-cell lymphoma), 6 days; read-out: Average day 6 gIC50. On the procedure:
as §1, §2, §3, §4, §5, §6, §7, §8

Another assay has as its system KMS-12PE. Conditions: Homo sapiens, 144 h; KMS-12PE (MM, Pleural effusion), 6 days; read-out: Average day 6 gIC50. On the procedure: as §1, §2, §3, §4, §5, §6, §7, §8
In a further assay the test system is MOLM-16. Conditions: MOLM16, 144 h; MOLM-16 (AML), 6 days; read-out: Average day 6 gIC50. The method, then:
as §1, §2, §3, §4, §5, §6, §7, §8

SMILES strings stand for the structures. pIC50: −log10 of the molar value.

For the molecule `CNC[C@@H](O)COc1ccc(Cl)c(-c2nc(-c3c(C)noc3C)c(C)c(N3CC4(CCN(C(=O)OC)CC4)C3)n2)c1` [EZM2302], the pIC50 with JJN3 is < 4.89; in the assay on MM.1R, 6.67; in the assay with LP-1 it was 5.58; with L363, 4.79; in the assay with KMS-12BM it was < 4.81; with HT, < 5.13. The pIC50 was < 4.51 in the assay with MOLP-2; 4.68 in the assay with GDM-1; < 5.13 with NC-37; < 4.72 in the assay on HuNS1; 6.62 in the assay with MC/CAR; < 4.69 in the assay on EJM. Moreover, the pIC50 with MOLP-8 was 5.18; in the assay on AMO-1 it was < 4.59; in the assay on KMS-11, < 4.74; with ARH-77 it was < 5.37; in the assay on DOHH-2, 6.33; in the assay on KASUMI-1 it was 4.88. The pIC50 is < 5.13 with DB; < 5.10 in the assay on MV-4-11; 6.06 in the assay with NCI-H929; < 5.13 in the assay with JM1; < 4.75 in the assay on KMS-12PE; 5.18 in the assay with MOLM-16.
